Legend:
[1] = target: T1, P2RY14 (Homo sapiens, UniProt Q15391); parameters: host or cells: yeast and HEK-293 cells (Chambers et al., J. Biol. Chem. 275: 10767-10771 (2000)); settings: yeast and mammalian cells, Chambers et al. 2000; cited from earlier work
T1 sequence (Q15391 1-338): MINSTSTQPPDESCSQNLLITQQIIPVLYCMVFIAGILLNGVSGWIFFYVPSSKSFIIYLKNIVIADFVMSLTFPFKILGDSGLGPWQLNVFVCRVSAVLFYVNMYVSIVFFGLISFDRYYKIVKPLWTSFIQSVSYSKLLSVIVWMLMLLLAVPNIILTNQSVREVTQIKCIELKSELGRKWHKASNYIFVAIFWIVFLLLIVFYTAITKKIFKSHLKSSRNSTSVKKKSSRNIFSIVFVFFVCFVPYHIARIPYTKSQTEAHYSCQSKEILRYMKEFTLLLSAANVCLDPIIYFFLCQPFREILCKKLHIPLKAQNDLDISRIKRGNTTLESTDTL

[2] = system: simian P2RY14; test: Membrane filtration binding assay, simian P2RY14; parameters: species or system chimpanzee; settings: HEK cells expressing simian P2RY14, membrane filtration
Description: Membrane preparations were made by N2 cavitation using a Parr unit. […] Cell were Dounce homogenized (size B, 10 strokes) and then added to the cavitation unit. Pressure was adjusted to 800 psi and cells were left under pressure for 30 minutes. Broken cells were released drop by drop and spun at 1000 g for 10 minutes. Supernatent was spun at 160,000 g (rotor type 60 Ti, 40000 rpm for 30 min). Pellet was resuspended in 10 mM HEPES/KOH pH 7.4, 1 mM EDTA in ⅕ the original volume, dounce homogenized (size A, 10 strokes), aliquoted, and frozen at −80° C.
Binding assays were performed in 10 mM Hepes pH 7.4 (KOH), 5 mM MnCl2, 5 mM MgCl2 buffer. Membranes (10 μg/well for human P2RY14 and 30 μg/well for simian P2RY14) were incubated with 10 nM [5.6-^3H] Uridine 5′-triphosphate (UTP), ammonium salt from Amersham Biosciences (# TRK412) in presence of compounds diluted in DMSO (2% final in assay), in a total volume of 100 μl. 50 minutes (human P2RY14) or 60 minutes (simian) P2RY14) incubations were performed at room temperature with shaking. […] To examine the stability of [^3H]-UTP in the membrane filtration binding assay, 100 ul aliquots of the reaction mixture were extracted at 2, 10, 20, 40, 60 and 90 minutes with 100 uL of cold 80 mM EDTA solution (pH 8) and 200 uL of cold Acetonitrile. After mixing, proteins were precipitated by centrifugation at 13000 rpm for 10 minutes at 4° C. […] After 0.5 min at 10:90 50 mM KH2PO4/750 mM KH2PO4, a gradient was applied in order to increase to 100% 750 mM KH2PO4 at 5 min, after which this composition was maintained for an additional 3 min. Samples were kept at 4° C. prior to HPLC analysis

[3] = target: T2, mouse P2RY14 (Mus musculus, UniProt Q9ESG6); test: CellKey System live cell functional assay, mouse P2RY14; type: cell-based; settings: HEK cells expressing mouse P2RY14 and Gqi5
T2 construct: expressed in transfected cells
T2 sequence (Q9ESG6 1-338): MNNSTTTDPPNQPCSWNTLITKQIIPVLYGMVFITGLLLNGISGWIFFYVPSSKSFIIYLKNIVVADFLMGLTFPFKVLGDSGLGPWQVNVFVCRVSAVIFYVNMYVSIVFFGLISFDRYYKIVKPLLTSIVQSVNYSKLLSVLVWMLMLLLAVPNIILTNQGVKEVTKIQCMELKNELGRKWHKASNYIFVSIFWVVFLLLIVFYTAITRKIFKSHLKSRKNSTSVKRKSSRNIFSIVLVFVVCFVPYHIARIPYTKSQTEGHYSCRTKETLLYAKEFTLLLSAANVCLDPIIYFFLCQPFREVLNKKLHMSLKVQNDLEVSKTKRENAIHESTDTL
Description: (§1) The Cellkey System™ (MDS Sciex), a novel, live cell, label-free, real-time technology, was used to examine P2RY14 activation following agonist stimulation. The CellKey System™ is based on cellular dielectric spectroscopy (CDS) and monitors changes in impedance of the applied electrical current through the cell monolayer upon receptor activation.
(§2) On the following day, growth medium was removed from the cell monolayer and replaced with 135 μl of HBSS pH 7.4 containing 20 mM Hepes for a 30 minutes pre-incubation period at room temperature. Baseline measurements were made for 5 minutes at 28° C. prior to ligand addition. For agonist assays, 15 μl of 10× agonist diluted in HBSS pH 7.4 containing 20 mM HEPES was added to the cell monolayer simultaneously using the 96 multichannel head from the CellKey™ System. Cellular response was monitored for 10 minutes to assess cellular response after ligand addition.

[4] = target: T1, P2RY14; test: CellKey System live cell functional assay, human P2RY14; type: cell-based; parameters: expressed in transfected cells; settings: HEK cells expressing human P2RY14 and Gqi5
Description: as §1, §2

[5] = target: T1, P2RY14; test: FLIPR whole cell Ca2+ agonist assay, HEK cells expressing human P2RY14 and Gqi5; type: cell-based; parameters: expressed in transfected cells; settings: for activation of P2RY14 (Ca2+ signaling): HEK cells expressing human P2RY14 and Gqi5, FLIPR
Description: (§3) Stable HEK clonal cell lines expressing P2RY14 and the chimeric G protein Gqi5 were constructed. The chimeric Gqi5 forces the coupling of P2RY14 through the Gq (calcium) pathway and allows for monitoring of calcium signaling using a calcium binding fluorescent dye and a FLIPR (fluorometric imaging plate reader, MDS Sciex). Vector pCEP4 comprising the chimeric Gqi5 was obtained from Molecular Devices, Sunnyvale, Calif. (Cat. No. RD-PGQI5).
The human P2RY14 was PCR amplified from the I.M.A.G.E. clone obtained from Invitrogen, Carlsbad, Calif. […] The codon encoding glutamate at position 54 in the wild-type human P2RY14 was changed to code for lysine. […] The PCR reaction was done in two parts. In the first part, the reaction was 5 cycles at 94° C. for 30 seconds, 65° C. for 30 seconds, and 72° C. for 90 seconds. In the second part, the reaction was 25 cycles at 94° C. for 30 seconds, 70° C. for 30 seconds, 72° C. for 90 seconds. The last cycle was followed by 7 minutes at 72° C. The PCR amplified human P2RY14 was digested with KpnI and NotI and cloned into a pcDNA3.1 (+) vector previously digested with KpnI and NotI to place the DNA fragment in the proper orientation downstream of the CMV promoter. The nucleic acid encoding the human P2RY14 was under the control of the CMV promoter.
(§4) Cells were grown in DMEM medium containing 25 mM HEPES, pH 7.4 and 10% FBS, 50 units/ml penicillin/50 μg/ml streptomycin, 2 mM glutamine and 1 mM sodium pyruvate at 37° C. in humidified air containing 5% CO2. Two days post-transfection, cells were grown under selection in the DMEM medium as indicated above and supplemented with 200 μg/ml Hygromycin B and 250 μg/ml geneticin.
(§5) Cells were incubated overnight at 37° C. and 5% CO2 to form a monolayer. On the following day, 30 μl of fluorescent no-wash dye was added to the cell monolayer and the plate was incubated for 60 minutes at 37° C., 5% CO2.
(§6) For agonist assays, 6.12 μl of 10× agonist solution was added to the cell/dye incubation and Ca^2+ signaling was monitored by FLIPR. For antagonist assays, 250 nl of compound in 100% DMSO was added to cell/dye mixture; following a 20 minute incubation at room temperature, 6.12 μl of 10× agonist solution at EC80 in HBSS containing 20 mM Hepes was added to cells and Ca^2+ signaling was monitored by FLIPR. Quantitation of the % stimulation or inhibition of Ca^2+ signaling by agonist or antagonist, respectively, was calculated using the Max-Min fluorescent signal detected.

[6] = system: simian (chimpanzee) P2RY14; test: CellKey System live cell functional assay, simian P2RY14; type: cell-based; settings: HEK cells expressing simian P2RY14 and Gqi5
Description: as §1, §2

[7] = system: simian (chimpanzee) P2RY14; test: FLIPR whole cell Ca2+ agonist assay, HEK cells expressing simian (chimpanzee) P2RY14 and Gqi5; type: cell-based
Description: as §3
The simian (chimpanzee) P2RY14 nucleic acid fragment was synthesized based upon the Ensembl Gene ID ENSPTRG00000030093 by Bio S & T, Montreal, Quebec, Canada, to be flanked with KpnI and NotI restriction enzyme sites. […] The DNA fragment was digested with KpnI and NotI and then cloned into a pcDEF3 vector previously digested with KpnI and NotI to place the DNA fragment in the proper orientation downstream of the human EF-1a promoter. The nucleic acid encoding the simian P2RY14 was under the control of the human EF-1a promoter.
as §4, §5, §6

[8] = system: HEK cells not expressing P2RY14; test: FLIPR Ca2+ release in HEK cells not expressing P2RY14 (specificity); type: cell-based
[9] = target: T2, mouse P2RY14; test: FLIPR whole cell Ca2+ agonist assay, HEK cells expressing mouse P2RY14 and Gqi5; type: cell-based
Description: as §3
The nucleic acid encoding the mouse P2RY14 was under the control of the CMV promoter.
as §4, §5, §6

Row | Compound | activation of P2RY14 [1] | specific binding window as radioligand [2] | P2RY14 signaling (impedance, CellKey) [3] | P2RY14 signaling (impedance, CellKey) [4] | Ca2+ response as compared to UDP-glucose and UMP ([5]; HEK cells expressing human P2RY14) | activation of P2RY14 (Ca2+ signaling) [5] | P2RY14 signaling (impedance, CellKey) [6] | activation of P2RY14 (Ca2+ signaling) [7] | Ca2+ release in cells not expressing P2RY14 [8] | activation of P2RY14 (Ca2+ signaling) [9]
1 | Nc1ncnc2c1ncn2[C@@H]1O[C@H](COP(=O)(O)OP(=O)(O)O[C@H]2O[C@H](CO)[C@@H](O)[C@H](O)[C@H]2O)[C@@H](O)[C@H]1O [ADP-glucose] | unable to activate |  |  |  |  |  |  |  |  | 
2 | [^3H]-UMP |  | no specific binding window |  |  |  |  |  |  |  | 
3 | O=c1ccn([C@@H]2O[C@H](COP(=O)(O)OP(=O)(O)OP(=O)(O)O)[C@@H](O)[C@H]2O)c(=O)[nH]1 [UTP, Uridine 5′-triphosphate] | unable to activate |  | mediated signaling | mediated signaling | much larger Ca^2+ response | activated | mediated signaling | activated | able to stimulate Ca^2+ release in a dose-dependent manner | activated
4 | CC(=O)N[C@H]1[C@@H](OP(=O)(O)OP(=O)(O)OC[C@H]2O[C@@H](n3ccc(=O)[nH]c3=O)[C@H](O)[C@@H]2O)O[C@H](CO)[C@@H](O)[C@@H]1O [UDP-N-acetylglucosamine] | able to activate |  | mediated signaling | mediated signaling |  | activated | mediated signaling | activated |  | activated
5 | O=P(O)(O)OP(=O)(O)OC[C@H]1O[C@@H](n2cnc3c(O)ncnc32)[C@H](O)[C@@H]1O [inosine diphosphate] |  |  |  |  |  | activated |  | activated |  | activated
6 | O=C(O)[C@H]1O[C@H](OP(=O)(O)OP(=O)(O)OC[C@H]2O[C@@H](n3ccc(=O)[nH]c3=O)[C@H](O)[C@@H]2O)[C@H](O)[C@@H](O)[C@@H]1O [UDP-glucuronic acid] | able to activate |  | mediated signaling | mediated signaling |  | activated | mediated signaling | activated |  | activated

— US20090148850A1, “Methods for identifying modulators of P2RY14” (priority 2007, published 2009)
